11 compounds from ChEMBL document CHEMBL1201862, “PubChem BioAssay data set” (2004) can be followed below.

SMILES strings stand for the structures.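 A five-concentration, 48-hour dose response in 96-well plates underlies each endpoint, interpolated linearly between surrounding concentrations. GI50 is the concentration that inhibits growth by half.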 Activity calls are given as the source filed them. Rule as the data show it: active = GI50 up to about 1.1 µM and inactive = higher.

Holding throughout (assay): NCI tumour cell line growth inhibition, 48 h
Experiment [1] has as its system ACHN.
The test system of experiment [2] is CCRF-CEM.
In experiment [3] the test system is COLO 205.
Experiment [4] relates to EKVX.
For experiment [5], the system named is HL-60.
Experiment [6] deals with HOP-92.
Experiment [7] deals with HT-29.
For experiment [8], the system named is K562.
Experiment [9] relates to MDA-MB-231.
The test system of experiment [10] is MDA-MB-435.
The subject of experiment [11] is NCI-H226.
The subject of experiment [12] is NCI-H522.
Experiment [13] concerns RPMI-8226.
The test system of experiment [14] is RXF 393.
Experiment [15] deals with SNB-19.
Experiment [16] has as its system T47D.
Experiment [17] deals with TK-10.
The test system of experiment [18] is U-251.
Experiment [19] relates to UACC-257.
Experiment [20] has as its system UO-31.

Turning to `CCO/C=N\C1=C(C#N)SC2=N/C(=C\c3ccco3)C(=O)N21`, the GI50 in experiment [1], in experiment [2], in experiment [3], in [4], in experiment [5] and in experiment [6] was > 100 µM (inactive) throughout. Further, the GI50 in experiment [7], in experiment [8], in [9], in experiment [10], in experiment [11] and in [12] was > 100 µM (inactive) in each case. In addition, the GI50 in experiment [13], in [14], in experiment [15], in experiment [16], in experiment [17] and in experiment [18] was > 100 µM (inactive) in each case. The GI50 in [19] and in experiment [20] was > 100 µM (inactive) each time.

Consider `O=C(c1ccccc1)C1C(C(=O)c2ccccc2)C(c2ccccc2)N(c2ccccc2)C1c1ccccc1` (stereo not drawn), for which the GI50 in experiment [1] is > 100 µM (inactive); in experiment [2], > 100 µM (inactive); in [3], > 100 µM (inactive); in experiment [4], > 100 µM (inactive); in experiment [5], 5.48 µM (inactive); in [6] it was > 100 µM (inactive). Besides, the GI50 was 46.7 µM (inactive) in experiment [8]; > 100 µM (inactive) in experiment [9]; > 100 µM (inactive) in [10]; > 100 µM (inactive) in experiment [11]; > 100 µM (inactive) in experiment [12]; 21.2 µM (inactive) in experiment [13]. For the same compound, the GI50 in experiment [14], in [15], in experiment [16], in experiment [17], in [18] and in experiment [19] was > 100 µM (inactive) each time. Moreover, the GI50 in experiment [20] is > 100 µM (inactive).

As for `Cc1sc2nc(N(C)C)oc(=O)c2c1C`, the GI50 in experiment [1] is 79.8 µM (inactive); in [2], 94.6 µM (inactive); in experiment [3] it was > 100 µM (inactive); in [4], 59.6 µM (inactive); in experiment [5], 37.9 µM (inactive); in [6] it was > 100 µM (inactive). Besides, the GI50 in experiment [7] is > 100 µM (inactive); in experiment [8], 63.4 µM (inactive); in [9], > 100 µM (inactive); in [10], > 100 µM (inactive); in experiment [11], > 100 µM (inactive); in experiment [12] it was 30.8 µM (inactive). The GI50 in experiment [13] is 41.3 µM (inactive); in experiment [14], 25 µM (inactive); in experiment [15], > 100 µM (inactive); in [16] it was 58.7 µM (inactive); in [17], > 100 µM (inactive); in [18], > 100 µM (inactive). Moreover, the figures for the GI50 in experiment [19] and in experiment [20] were > 100 µM (inactive) and 21.6 µM (inactive), respectively.

Take `Nc1nc(Nc2ccc(Cl)cc2)sc1C(=O)c1c[nH]c2ccccc12`: the GI50 was 12.4 µM (inactive) in experiment [1]; 15 µM (inactive) in experiment [2]; 3.8 µM (inactive) in [3]; 15.7 µM (inactive) in experiment [5]; 20 µM (inactive) in experiment [6]; 6.78 µM (inactive) in experiment [7]. Also, the GI50 in experiment [8] is 6.18 µM (inactive); in experiment [9], 17.9 µM (inactive); in [10] it was 12.9 µM (inactive); in experiment [11] it was 19.3 µM (inactive); in experiment [13], 11.6 µM (inactive); in experiment [14] it was 9.27 µM (inactive). For the same compound, the GI50 in experiment [15] is 14.3 µM (inactive); in [16], 8.32 µM (inactive); in [17] it was 13 µM (inactive); in experiment [18] it was 12.2 µM (inactive); in experiment [19], 7.26 µM (inactive); in experiment [20], 15.4 µM (inactive).

For `COC(=O)/C=C(\C(=O)OC)c1cc(C)c2cc(C(C)C)ccc(C)c1-2`, the GI50 in [1] is 25.6 µM (inactive); in [2], 71.4 µM (inactive); in [3], 30.3 µM (inactive); in experiment [4], 71 µM (inactive); in experiment [5] it was 34.7 µM (inactive); in experiment [6], 24.5 µM (inactive). Further, the GI50 was 13.3 µM (inactive) in experiment [7]; > 100 µM (inactive) in experiment [8]; 24.7 µM (inactive) in experiment [9]; 30 µM (inactive) in experiment [10]; 53.3 µM (inactive) in experiment [11]; 13.1 µM (inactive) in [12]. The GI50 was > 100 µM (inactive) in experiment [13]; 41.4 µM (inactive) in [14]; > 100 µM (inactive) in experiment [15]; 15.4 µM (inactive) in [16]; 83.9 µM (inactive) in experiment [17]; 51.1 µM (inactive) in experiment [18]. For the same compound, in experiment [20], the GI50 was 20.5 µM (inactive).

For `CCOC(=O)c1cc(C2CCN(CC(C)CC)C2=S)c(-c2cc(C)no2)[nH]1` (stereo not drawn), the GI50 in experiment [2] was > 100 µM (inactive); in [3], 37.4 µM (inactive); in [4] it was 14.7 µM (inactive); in experiment [5] it was 35 µM (inactive); in [6], 38 µM (inactive); in experiment [7], 41.7 µM (inactive). For the same compound, the GI50 in experiment [8] was 77.4 µM (inactive); in [9], 29.6 µM (inactive); in [10], > 100 µM (inactive); in experiment [11] it was 55.3 µM (inactive); in experiment [13], 66.1 µM (inactive); in experiment [14] it was > 100 µM (inactive). In addition, the GI50 in experiment [15] is 46.1 µM (inactive); in experiment [16], 50.4 µM (inactive); in experiment [18], > 100 µM (inactive); in [19] it was > 100 µM (inactive); in experiment [20] it was 17.3 µM (inactive).

With `c1ccc(C[n+]2ccc3c(c2)CCCC3)cc1`, the GI50 in experiment [1] was 64.6 µM (inactive); in [2], > 100 µM (inactive); in experiment [3], 66.5 µM (inactive); in [4] it was 10.6 µM (inactive); in [5] it was 29.5 µM (inactive); in experiment [6], > 100 µM (inactive). The GI50 was 50.9 µM (inactive) in experiment [7]; 11.7 µM (inactive) in experiment [8]; > 100 µM (inactive) in experiment [9]; > 100 µM (inactive) in experiment [10]; > 100 µM (inactive) in experiment [11]; 65.9 µM (inactive) in experiment [13]. Besides, the GI50 in [14] is > 100 µM (inactive); in experiment [15], 49.5 µM (inactive); in experiment [16], 45.3 µM (inactive); in experiment [17] it was > 100 µM (inactive); in experiment [18] it was 55.1 µM (inactive); in experiment [19], 33.8 µM (inactive). For the same compound, the GI50 in experiment [20] is > 100 µM (inactive).

`COC(=O)/C(C#N)=C(/NCc1ccccc1)Nc1ccccc1`: the GI50 in [1] was > 100 µM (inactive); in [3], 73.1 µM (inactive); in experiment [4] it was 50.9 µM (inactive); in experiment [5] it was 27.8 µM (inactive); in experiment [6], 81.7 µM (inactive); in experiment [7], 87.7 µM (inactive). Also, the GI50 in experiment [8] was 46.1 µM (inactive); in [9] it was 69.7 µM (inactive); in [10] it was > 100 µM (inactive); in [11], > 100 µM (inactive); in [12], 55.7 µM (inactive); in [13], 48.9 µM (inactive). The GI50 is > 100 µM (inactive) in experiment [14]; > 100 µM (inactive) in experiment [15]; 79.3 µM (inactive) in experiment [16]; > 100 µM (inactive) in [17]; > 100 µM (inactive) in experiment [18]; 82.8 µM (inactive) in [19]. Further, the GI50 in [20] is 37.6 µM (inactive).

In the case of `O=C(O)C1CCCCC1c1c2ccc(=O)cc-2oc2cc(O)ccc12` (stereo not drawn), the GI50 in experiment [1] is 31.8 µM (inactive); in experiment [2] it was 42.8 µM (inactive); in experiment [3], 34.1 µM (inactive); in experiment [4] it was 33.5 µM (inactive); in [5], 54.6 µM (inactive); in [6] it was 12 µM (inactive). The GI50 is 29.3 µM (inactive) in experiment [7]; 14.1 µM (inactive) in experiment [8]; 30.8 µM (inactive) in experiment [9]; 13.4 µM (inactive) in experiment [10]; 17.7 µM (inactive) in experiment [12]; 23 µM (inactive) in experiment [13]. For the same compound, the GI50 in [14] is 18.7 µM (inactive); in [15] it was 48.6 µM (inactive); in experiment [16], 19.1 µM (inactive); in [17], 52.1 µM (inactive); in experiment [18], 30.5 µM (inactive); in [19], 65.3 µM (inactive). Besides, the GI50 in [20] was 61 µM (inactive).

`O=C(NCC1Nc2ccncc2S(=O)(=O)N1)c1ccc(Br)cc1` (stereo not drawn): the GI50 in experiment [1] was > 100 µM (inactive); in experiment [3] it was > 100 µM (inactive); in experiment [4], > 100 µM (inactive); in experiment [5], 30.1 µM (inactive); in [6], 34.4 µM (inactive); in experiment [7], > 100 µM (inactive). Further, the GI50 is 33.2 µM (inactive) in experiment [8]; 20.1 µM (inactive) in experiment [9]; 19.6 µM (inactive) in [10]; > 100 µM (inactive) in experiment [11]; 28.2 µM (inactive) in experiment [12]; 32.5 µM (inactive) in experiment [13]. The GI50 was > 100 µM (inactive) in experiment [14]; 81.3 µM (inactive) in experiment [15]; > 100 µM (inactive) in experiment [16]; > 100 µM (inactive) in experiment [17]; 30.4 µM (inactive) in [18]; > 100 µM (inactive) in [19]. In addition, the GI50 in [20] was 25.1 µM (inactive).

As to `COc1cccc(-c2cc(O)c3c(C)cc(C)nc3n2)c1`, the GI50 in experiment [1] was 0.555 µM (active); in experiment [2] it was 0.431 µM (active); in experiment [3], 0.21 µM (active); in [4], 3.85 µM (inactive); in [5] it was 0.182 µM (active); in experiment [6] it was 2.74 µM (inactive). Moreover, the GI50 was 0.34 µM (active) in [7]; 0.158 µM (active) in experiment [8]; 1.6 µM (inactive) in experiment [9]; 0.0512 µM (active) in [10]; 0.394 µM (active) in experiment [11]; 0.521 µM (active) in experiment [12]. Moreover, the GI50 is 0.345 µM (active) in [13]; 1.29 µM (inactive) in experiment [14]; 0.714 µM (active) in experiment [15]; 14.5 µM (inactive) in experiment [16]; 40.8 µM (inactive) in experiment [17]; 0.526 µM (active) in experiment [18]. The GI50 in experiment [20] is 0.867 µM (active).
